Test results from patent US8173133B2, “Acyl pseudodipeptides which carry a functionalized auxiliary arm” (OM Pharma, priority 1999, dated 2012).

Columns and labels:
[1] = tested on: CD83, CD86 surface markers of predendritic cells (DC-6); assay: dendritic cell differentiation test: CD83, CD86 surface marker expression; type: cell-based, human; settings: for concentration inducing an increase in expression of CD83 and CD86 surface markers: FIGS. 75 & 76; for CD86 % CD / CD86 Fluorescence: 10 μg/ml; for CD86 % CD: products redissolved in pyrogen-free water, % of dendritic cells; for CD86 Fluorescence: mean fluorescence value
Method: The ability of products of the invention to induce maturation of predendritic cells into dendritic cells was assessed. The following parameters were measured: FITC-Dextran conjugate take-up and expression of CD83, CD86 surface markers.
Mononucleated cells of peripheral blood are isolated from buffy coats of healthy donors. Purified monocytes by adherence selection are resuspended in RPMI-1640 medium containing 10% of foetal calf serum (FCS), GM-CSF and IL-4 (10 ng/ml) at a density of 1×10^6 cells/ml. Cells are divided into Petri Dishes (10×10^6 cells per dish) and cultured for 6 days with a change to fresh medium after 3 days. Cells thus obtained are called predendritic cells (DC-6). Maturation of predendritic cells into mature dendritic cells is achieved by incubating cells with diluted solutions of the products or LPS (positive control) for 3 more days (see product section below). At day 9 (DC-9), cells are harvested and analyzed for different indicators of dendritic cell maturation: assessment of CD83, CD86 surface marker expression as well as of their ability to take up FITC-Dextran conjugate. All these parameters are analyzed by an EPICS-XL-MCL model FACS (Coulter Immunology, Hialeah, […]).
Expression of surface markers is given as % of mean fluorescence of LPS-activated cells (positive control); FITC-Dextran conjugate take-up rate is calculated based on take-up of cells maintained in basic medium and is expressed in %.
Solutions are incubated at 37° C. for 20 minutes, subjected to vigorous stirring during 3 minutes and then diluted to 100 μg/ml in RPMI-1640 culture medium and used in diluted state at concentrations ranging from 10 μg/ml to 0.03 μg/ml. Reference Product: E. coli lipopolysaccharide (LPS, DIFCO, Detroit, Mich., U.S.A.), as a 5 mg/ml stock solution in PBS. An intermediate 100 μg/ml solution is prepared in RPMI 1640 culture medium. Concentrations of dilute solutions being tested range from 1 μg/ml to 0.03 μg/ml.
In another series of experiments, all acyl dipeptide-like compounds were freeze-dried and directly redissolved into pyrogen-free water. Different products as well as LPS control are tested at a concentration of 10 μg/ml. Results are given as % of dendritic cells and mean fluorescence value for dextran phagocytosis or CD86 surface marker expression.

[2] = tested on: human peripheral blood mononuclear cells; assay: inhibition of E. coli LPS-induced α TNF production in human peripheral blood mononuclear cells; type: cell-based; settings: product 10 μg/ml; for 50% inhibition LPS: LPS concentration at which α TNF production is 50% of control; for max. Inhibition LPS: LPS concentration corresponding to maximum inhibition
Method: Mononuclear cells of peripheral blood are recovered from buffy coats of 6 healthy donors. Such buffy coat cells are resuspended and mononuclear cells are isolated by centrifugation on a Ficoll-Paque gradient (Amersham Pharmacia). Purified mononuclear cells are resuspended into RPMI-1640 medium supplemented with 10% FCS, antibiotics, mercaptoethanol and L-glutamine. Cell concentration is adjusted to 2×10^6 viable cells/ml.
Product mediated Inhibition is determined by preincubating those products with mononuclear cells, and adding, 1 hour later, serially diluted solutions of LPS capable of inducing α TFN production. […] E. coli LPS is serially diluted (10-fold dilution) to be in the range of 1 to 0.00001 μg/ml
50 μl of 10 μg/ml dilute product solutions in RPMI 1640 medium are dispensed into a microtiter plate. Each assay (10 μg/ml product concentration+dilute E. coli LPS) is run in triplicates and each microtiter plate includes a negative control comprised of plain medium. LPS-induced α TNF production (without inhibitor) is determined by adding E. coli LPS dilutions to RPMI medium.
100 μl of the cell suspension are added to each well containing dilutions of either product or control. Cells are incubated with the products for 1 hour in an incubator at 37° C., under 5% CO2 and a moisture saturated atmosphere.
At the end of the pre-incubation period, 50 μl of serially diluted solutions of E. coli LPS are added. Incubation of mononuclear cells with the product and LPS is extended for 18 hours. At the end of the cell activation period, the microtiter plates are centrifuged, and the supernatants are pooled and frozen at −80° C. as aliquots until time of ELISA assay.
Concentration of αTNF secreted by mononuclear cells is determined by chemiluminescent ELISA (QuantiGlo #QTAOO R&D kit). 4-fold dilutions of supernatant fluid are dispensed into each well of the microtiter plate to which anti-human αTNF antibodies are bound. The microtiter plate is incubated for 4 hours at room temperature. After washing, peroxidase-conjugated anti-human αTNF antibody is added. Following a 2 hour incubation period and a thorough washing, a chemiluminescent substrate is added and chemilunescence is read after 20 minutes. αTNF content in the supernatant fluid is determined with respect to a standard curve covering the 7000 to 0.7 pg/ml range.
Inhibition is characterized by the E. coli LPS concentration which elicits 50% production of α TNF during co-incubation in comparison to a control including only RPMI. This concentration increases as product inhibition activity becomes stronger. Knowing inhibition values of α TNF production, this concentration is given by calculating 100-(αTNF production induced by product and LPS)/(αTNF production induced by LPS alone)*100. From these inhibition data, concentration is determined by linear regression along the line segment which joins 2 LPS dilutions giving approx. 50% inhibition.
Product ability to inhibit α TNF production in mononuclear cells in response to LPS is further characterized by maximum inhibition. […] Results are calculated from a representative experience using all products.

| SMILES | concentration inducing an increase in expression of CD83 and CD86 surface markers [1] | max. Inhibition [2] | 50% inhibition LPS [2] | max. Inhibition LPS [2] | CD86 % CD [1] | CD86 Fluorescence [1] |
| --- | --- | --- | --- | --- | --- | --- |
| CCCCCCCCCCCC(=O)O[C@H](CCCCCCCCCCC)CC(=O)N[C@H](CC(=O)O)C(=O)NCCC[C@H](CO)NC(=O)C[C@H](O)CCCCCCCCCCC [OM-197-MC, N—[(R)-3-dodecanoyloxytetradecanoyl]-D-aspartic acid, α-N-{(4R)-5-hydroxy-4[(R)-3-hydroxytetradecanoylamino]-pentyl}amide] | at least 1 μg/ml | 100% | 1 µg/mL | 0.0043 µg/mL |  |  |
| CCCCCCCCCCCC(=O)O[C@H](CCCCCCCCCCC)CC(=O)NC(CCOP(=O)(O)O)C(=O)NCCC[C@H](COC(=O)CCCCCN)NC(=O)C[C@H](O)CCCCCCCCCCC (mixture of isomers) [OM-197-MP-AC (R/S, R), (3RS,9R)-3-[(R)-3-dodecanoyloxytetradecanoylamino]-4oxo-5-aza-9-[(R)-3-hydroxytetradecanoylamino]-decan-10-ol 1-dihydrogen-phosphate(6-aminohexanoate)] | 0.1 µg/mL | 100% | >1 µg/mL | 0.00002 µg/mL | 80.0% | 6.0 |
| CCCCCCCCCCCC(=O)O[C@H](CCCCCCCCCCC)CC(=O)N[C@H](CC(=O)O)C(=O)NCCC[C@H](COC(=O)CCCCCO)NC(=O)C[C@H](O)CCCCCCCCCCC [OM-197-MC-FV7, N—[(R)-3-dodecanoyloxytetradecanoylamino]-D-aspartic acid, α-N-{(4R)-5-hydroxy-4-[(R)-3-hydroxytetradecanoylamino]pentyl}amide 5-O-(6-hydroxyhexanoate)] |  | 100% | >1 µg/mL | 0.00035 µg/mL |  |  |
| CCCCCCCCCCC[C@@H](O)CC(=O)N[C@H](CCCNC(=O)[C@@H](CC(=O)O)NC(=O)C(CCCCCC)OC(=O)CCCCCCCCC)COC(=O)CCCCCN (stereo partly drawn) [OM-197-N′(C10-20C8)-MC-AC, N-(2-decanoyloxyoctanoyl)-D-aspartic acid, α-N-{(4R)-5-(6-aminohexanoyloxy)-4-[(R)-3-hydroxytetradecanoylamino]-pentyl}amide] |  | 85% | 0.0009 µg/mL | <0.00001 µg/mL |  |  |
| CCCCCCCCCCCC(=O)O[C@H](CCCCCCCCCCC)CC(=O)N[C@H](CC(=O)N[C@@H](CCCCN)C(=O)O)C(=O)NCCC[C@H](CO)NC(=O)C[C@H](O)CCCCCCCCCCC [OM-197-Lys] |  | 100% | 0.70 µg/mL | 0.0055 µg/mL | 21.2% | 2.1 |
| CCCCCCCCCCCC(=O)O[C@H](CCCCCCCCCCC)CC(=O)N[C@H](CC(=O)N[C@@H](CC(=O)O)C(=O)O)C(=O)NCCC[C@H](CO)NC(=O)C[C@H](O)CCCCCCCCCCC [OM-197-Asp, N—[(R)-3-dodecanoyloxytetradecanoyl]-D-aspartic acid, α-N-{(4R)-5-hydroxy-4-[(R)-3-hydroxytetradecanoylamino]-pentyl}Amide β-N-[(1S)-1,2-Dicarboxyethyl]Amide] |  | 100% | >1 µg/mL | 0.00036 µg/mL | 29.0% | 2.6 |
| CCCCCCCCCCCC(=O)O[C@H](CCCCCCCCCCC)CC(=O)NC(CCOP(=O)(O)O)C(=O)NCCCC(COC(=O)CCCCC(O)CO)NC(=O)C[C@H](O)CCCCCCCCCCC (stereo partly drawn) [OM-197-FV6, 3-[(R)-dodecanoyloxytetradecanoylamino]-4oxo-5-aza-9-[(R)-3-hydroxytetradecanoylamino]-decan-1,10-diol 1-dihydrogenphate 10-(6,7-dihydroxyheptanoate)] | no effect at all | 100% | >1 µg/mL | 0.014 µg/mL | 62.9% | 4.9 |
| CCCCCCCCCCCC(=O)O[C@H](CCCCCCCCCCC)CC(=O)N[C@H](CC(=O)O)C(=O)NCCC[C@H](COP(=O)(O)O)NC(=O)C[C@H](O)CCCCCCCCCCC [OM-197-MC-MP, N—[(R)-3-dodecanoyloxytetradecanoyl]-D-aspartic acid, α-N-{(4R)-5-dihydroxyphosphoryloxy-4-[(R)-3-hydroxytetradecanoyl-amino]pentyl}amide] |  | 100% | 0.19 µg/mL | 0.001 µg/mL |  |  |
| CCCCCCCCCCCC(=O)O[C@H](CCCCCCCCCCC)CC(=O)N[C@@H](CCOP(=O)(O)O)C(=O)NCCC[C@H](COC(=O)CCCCCO)NC(=O)C[C@H](O)CCCCCCCCCCC [OM-197-MP-AC (S, R), (3S,9R)-3-[(R)-3-dodecanoyloxytetradecanoylamino]-4-oxo-5-aza-9-[(R)-3-hydroxytetradecanoylamino]-1,10-diol 1-dihydrogenphosphate 10-(6-hydroxyhexanoate)] |  | 100% | >1 µg/mL | 0.00002 µg/mL |  |  |
| CCCCCCCCCCC[C@@H](O)CC(=O)N[C@H](CCCNC(=O)[C@@H](CC(=O)O)NC(C)=O)COC(=O)CCCCCN [OM-197-N′C2-MC-AC, N-acetyl-D-aspartic acid, α-N-{(4R)-5-(6-aminohexanoyloxy)-4-[(R)-3-hydroxytetradecanoylamino]-pentyl}amide] |  | 100% | 0.0003 µg/mL | 0.00001 µg/mL |  |  |
| CCCCCCCCCCCC(=O)O[C@H](CCCCCCCCCCC)CC(=O)NC(CCOP(=O)(O)O)C(=O)NCCCC(COC(=O)CCCCCO)NC(=O)C[C@H](O)CCCCCCCCCCC (stereo partly drawn) [OM-197-FV8, 3-[(R)-3-dodecanoyloxytetradecanoylamino]-4-oxo-5-aza-9-[(R)-3-hydroxytetradecanoylamino]-decan-1,10-diol 1-dihydrogenphosphate 10-(6-hydroxyhexanoate)] |  | 100% | >1 µg/mL | 0.0033 µg/mL |  |  |
| CCCCCCCCCCCC(=O)O[C@H](CCCCCCCCCCC)CC(=O)N[C@H](CC(=O)O)C(=O)NCCC[C@H](COC(=O)CCCCCNC(=O)CCC(=O)O)NC(=O)C[C@H](O)CCCCCCCCCCC [OM-197-MC-AC-Succ, N—[(R)-3-dodecanoyloxytetradecanoyl]-D-aspartic acid, α-N-{(4R)-5-(6-succinylamidohexanoxyloxy)-4[(R)-3-hydroxy-tetradecanoylamino]pentyl}amide] |  | 100% | >1 µg/mL | 0.044 µg/mL |  |  |
